Measurements as given in BindingDB's records for doi:10.1021/jm070453f (Gnf, 2007).

Legend:
[1] = molecular target: T1, Oxysterols receptor LXR-beta (Homo sapiens, UniProt P55055); assay: Fluorescence-Resonance Energy Transfer Assay; details: pH 7.2; 37 °C
T1 sequence (P55055 whole entry): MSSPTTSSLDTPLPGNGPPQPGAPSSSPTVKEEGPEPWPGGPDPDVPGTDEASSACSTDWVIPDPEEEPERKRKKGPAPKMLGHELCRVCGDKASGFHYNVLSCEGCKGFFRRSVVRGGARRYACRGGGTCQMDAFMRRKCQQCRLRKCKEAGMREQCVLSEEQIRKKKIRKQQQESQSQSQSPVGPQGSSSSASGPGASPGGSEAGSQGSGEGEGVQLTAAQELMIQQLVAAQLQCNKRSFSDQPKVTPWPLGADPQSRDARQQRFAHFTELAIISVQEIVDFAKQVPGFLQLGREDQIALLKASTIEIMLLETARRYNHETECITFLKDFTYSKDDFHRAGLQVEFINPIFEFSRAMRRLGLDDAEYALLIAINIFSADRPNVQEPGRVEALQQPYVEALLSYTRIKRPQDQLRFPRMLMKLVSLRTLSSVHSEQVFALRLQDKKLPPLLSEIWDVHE
Protocol: (§1) FRET-based co-activator recruitment assay measures agonist activities in a 384-well plate format. Reaction mixture containing His-tagged hLXR, biotinylated SRC-1 peptide, Europiumlabeled anti-His antibody, and allophycocyaninlabeled streptavidin (Prozyme) was prepared. Ligands were tested in 12-point dose-response curves, and FRET was read on an AnalystGT (Molecular Devices).

[2] = molecular target: T2, Oxysterols receptor LXR-alpha (Homo sapiens, UniProt Q13133); assay: Scintillation Proximity Assay
T2 sequence (Q13133 whole entry): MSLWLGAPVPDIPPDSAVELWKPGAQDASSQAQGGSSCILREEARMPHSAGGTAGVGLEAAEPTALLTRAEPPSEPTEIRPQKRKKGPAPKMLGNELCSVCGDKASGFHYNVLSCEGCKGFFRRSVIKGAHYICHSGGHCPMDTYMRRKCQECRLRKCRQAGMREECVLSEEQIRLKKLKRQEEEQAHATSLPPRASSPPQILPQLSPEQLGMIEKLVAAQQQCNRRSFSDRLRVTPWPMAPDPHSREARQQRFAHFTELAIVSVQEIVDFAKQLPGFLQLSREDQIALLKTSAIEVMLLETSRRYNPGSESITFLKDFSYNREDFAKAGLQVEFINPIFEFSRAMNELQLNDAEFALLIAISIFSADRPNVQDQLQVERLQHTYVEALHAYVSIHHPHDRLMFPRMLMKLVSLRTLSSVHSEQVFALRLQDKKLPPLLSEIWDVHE
Protocol: (§2) SPA assays were run in displacement mode using 30 nM [3H]-GW3965. Ligands were tested in 12-point dose-response curves starting at 20 uM. IC50 values were determined from dose-response and competition curves, which were generated by nonlinear regression analysis using GraphPad Prism.

[3] = molecular target: T1, Oxysterols receptor LXR-beta; assay: Scintillation Proximity Assay
Protocol: as §2

[4] = molecular target: T2, Oxysterols receptor LXR-alpha; assay: Fluorescence-Resonance Energy Transfer Assay; details: pH 7.2; 37 °C
Protocol: as §1

EC50 [1] | IC50 [2] | IC50 [3] | EC50 [4] | Structure (SMILES)
300 nM | 9.8 µM | 300 nM | – | COc1cccc(C2SC(c3ccc(Cl)cc3)=NN2C(=O)c2c(F)cc(F)cc2F)c1OC (racemic) [5-(4-chlorophenyl)-2-(2,3-dimethoxyphenyl)-3-[(2,4,6-trifluorophenyl)carbonyl]-2,3-dihydro-1,3,4-thiadiazole]
– | 0.121 µM | 23 nM | – | O=C(O)Cc1cccc(OCCCN(Cc2cccc(C(F)(F)F)c2Cl)CC(c2ccccc2)c2ccccc2)c1 [2-{3-[3-({[2-chloro-3-(trifluoromethyl)phenyl]methyl}(2,2-diphenylethyl)amino)propoxy]phenyl}acetic acid]
210 nM | – | – | 400 nM | COc1ncccc1C1SC(c2ccc(F)cc2)=NN1C(=O)c1c(F)cc(F)cc1F (centres undefined) [5-(4-fluorophenyl)-2-(2-methoxypyridin-3-yl)-3-[(2,4,6-trifluorophenyl)carbonyl]-2,3-dihydro-1,3,4-thiadiazole]
– | 5 µM | 66 nM | – | COc1cccc([C@H]2SC(c3ccc(Cl)cc3)=NN2C(=O)c2c(F)cc(F)cc2F)c1OC [(2R)-5-(4-chlorophenyl)-2-(2,3-dimethoxyphenyl)-3-[(2,4,6-trifluorophenyl)carbonyl]-2,3-dihydro-1,3,4-thiadiazole]
